Results: PMC11243320, “Tailoring Fibroblast-Activation Protein Targeting for Theranostics: A Comparative Preclinical Evaluation of the ^68Ga- and ^177Lu-Labeled Monomeric and Dimeric Fibroblast-Activation Protein Inhibitors DOTA.SA.FAPi and DOTAGA.(SA.FAPi)2” (Molecules, 2024)

How the values were obtained:
[1] = Lipophilicity LogD octanol/PBS pH 7.4, shake-flask method; type: physicochemical
Experimental: (§1) The lipophilicity (LogDoctanol/PBS) and protein binding of the four radiotracers in human serum were determined as described in the Supplemental Data. […]
minimum conjugate amount. Briefly, the Ge-68/Ga-68 generator was eluted with 5 mL HCl 0.1 N and the eluate (~300 MBq) was loaded onto a cation exchange column (Strata-XC, Phenomenex). […]
After the labeling with gallium-68 or lutetium-177 and the quality control of the generated radiotracers, one equivalent of either natGa(NO3)3 or natLuCl3∙6H2O was added to the relevant radiolabeling solutions. […] The homogeneity was determined by HPLC, […]
Lipophilicity /Protein Binding Studies and Metabolic Stability in Human Serum The lipophilicity (LogD Octanol/PBS, pH 7.4) was estimated by the “shake –flask” method: the labelled conju-gate (20 pmol; 0.3 MBq) was added to a 1:1 mixture of 1-octanol (500 μL) and PBS (500 μL, pH 7.4). […] From each phase, an aliquot (50 μL) was pipetted out and measured in a gamma counter. […] The partition coefficient was calculated as the average log ratio of the radioactivity in the organic fraction and […]

human serum proteins = test: Binding to human serum proteins, 30 min incubation; type: in vitro ADME; conditions: 37 °C
Experimental: as §1
minimum conjugate amount. Briefly, the Ge-68/Ga-68 generator was eluted with 5 mL HCl 0.1 N and the eluate (~300 MBq) was loaded onto a cation exchange column (Strata-XC, Phenomenex). Gallium-68 was eluted with 700 μL of a mixture of 5.5 M NaCl / 0.1 M HCl (prepared by mixing 0.530 mL of ultrapure 30% aq. HCl and 49.5 mL of 5.5M NaCl) directly into a vial containing 400 μL of 1.8 M sodium acetate buffer (pH 4.3) for DOTA.SA.FAPi or 2 mL 1.45 M HEPES (pH 4.1) for DOTAGA.(SA.FAPi)2, 2 mL H2O (only in case of DOTA.SA.FAPi), 200 μL of EtOH, and 20 μg (approximately 20 nmol) of the conjugate, followed by Sep-Pak C-18 purification to remove uncomplexed gallium-68. The purified [68Ga]Ga-DOTA.SA.FAPi and [68Ga]Ga-DO,TAGA.(SA.FAPi)2 were eluted in 2.7 mL of a solution of 12% EtOH in PBS. […]
The 68Ga- and 177Lu-labelled radiotracers (20 pmol; 0.3 MBq) were incubated with commercially available human serum (0.5 mL) at 37 °C for 30 min. […] After careful separation of the two phases, the respective activities were measured in a gamma counter, followed by determination of the percentage of the radiotracer that bound […]

Lipophilicity LogDoctanol/PBS-pH7.4 [1]	Percentage of human serum protein bound activity (human serum proteins)	SMILES
−3.38 ± 0.03	10.6 ± 3.9%	N#C[C@@H]1CC(F)(F)CN1C(=O)CNC(=O)c1ccnc2ccc(OCCCCNc3c(NCCNC(=O)CN4CCN(CC(=O)[O-])CCN(CC(=O)[O-])CCN(CC(=O)[O-])CC4)c(=O)c3=O)cc12.[68Ga+3] [[^68Ga]Ga-DOTA.SA.FAPi]
−2.86 ± 0.06	9.9 ± 4.4%	N#C[C@@H]1CC(F)(F)CN1C(=O)CNC(=O)c1ccnc2ccc(OCCCCNc3c(NCCNC(=O)CN4CCN(CC(=O)[O-])CCN(CC(=O)[O-])CCN(CC(=O)[O-])CC4)c(=O)c3=O)cc12.[177Lu+3] [[^177Lu]Lu-DOTA.SA.FAPi]
